Assay results: patent US4952493A, “Peptide substrates for detecting virus-specified protease activity” (priority 1987, dated 1990)
Where “and” joins values, the source holds several entries; their conditions need not be identical. Equal entries are not always repeated. Numbered stars: 1 amine (or outer) side, 2 acyl side, 3 side chain; on linkers, the order of the positions; unused ones are H or OH. Peptide text beside a SMILES is read from it. * marks the point of attachment. AMC = Cc1cc(=O)oc2cc(N*)ccc12; Suc = O=C(CCC(=O)[*:2])[*:1]

Test system: virus-specified protease activity in extracts of Poliovirus Type 2 infected HeLa-O cells
Format: biochemical
Conditions: pH 5

With `Cc1cc(=O)oc2cc(NC(=O)[C@H](CCC(N)=O)NC(=O)[C@H](CC(C)C)NC(=O)CNC(=O)[C@H](Cc3ccccc3)NC(=O)CCC(=O)O)ccc12` [Suc-Phe-Gly-Leu-Gln-AMC] (Suc-FGLQ-{AMC}) the “Protease Activity, AMC Substrate” value was 22.5 and 11.4.
